Here are results for 21 compounds from patent US9115169B2, “Method of treating tumors” (Lytix Biopharma AS, priority 2000, dated 2015).

In test [1] the test system is Escherichia coli ATCC 25922.
Test [2] has as its system Staphylococcus aureus ATCC 25923.
Test [3] relates to Escherichia coli ATCC 25922. Conditions: ATCC 25922.
Test [4] concerns Staphylococcus aureus ATCC 25923. The settings on record: ATCC 25923.
In a further test the test system is MRSE ATCC 27626. Conditions: ATCC 27626.

Values after ≈ are worked out from the molar mass of the structure shown. Values joined by “and” are separate entries in the source; they are usually repeats but may differ in a detail not shown here. Identical values can stand only once. Like-named read-outs stand apart in the source and are kept apart here. Where a SMILES comes first, the peptide text is derived from it. Where no end group is shown, it is not given here. [ ]: non-standard residue; d: D form. The star is where a group is joined. OBn = c1ccc(CO*)cc1 Some results are limits rather than exact numbers.

For `N=C(N)NCCC[C@H](NC(=O)C1CCCCC1)C(=O)N[C@@H](Cc1c[nH]c2ccccc12)C(=O)OCc1ccccc1` [Chx RW OBz, Chx-Arg-Trp-OBzl], in test [1] (ATCC 25922), the “MIC E. coli” value was 200 (>200) μg/ml. Also, the “MIC S. aureus” value in test [2] (ATCC 25923) is given as 75 (75) μg/ml. The “MBC E. coli” value in test [3] is 200 (>200) μg/ml. In addition, in test [4], the “MBC S. aureus” value is on record as 75 (75) μg/ml.
Consider `COC(=O)[C@H](CCCNC(=N)N)NC(=O)[C@H](Cc1c[nH]c2ccccc12)NC(=O)C1CCCCC1` [Chx WR OMe, Chx-Trp-Arg-OMe], for which, in test [1] (ATCC 25922), the “MIC E. coli” value is >200 (>200) μg/ml. Moreover, the “MIC S. aureus” value in test [2] (ATCC 25923) is >200 (>200) μg/ml. In test [3], the “MBC E. coli” value is given as >200 (>200) μg/ml. For the same compound, the “MBC S. aureus” value in test [4] is on record as >200 (>200) μg/ml.
Take `N=C(N)NCCC[C@H](NC(=O)Cc1c[nH]c2ccccc12)C(=O)N[C@@H](Cc1c[nH]c2ccccc12)C(=O)NCCNC(=O)OCc1ccccc1` [Ind RW DaeZ, Ind-Arg-Trp-Dae-Z]: the “MIC E. coli” value in test [1] (ATCC 25922) is given as >200 (>200) μg/ml. Besides, the “MIC S. aureus” value in test [2] (ATCC 25923) is reported as 75 (75) μg/ml. Moreover, the “MBC E. coli” value in test [3] was >200 (>200) μg/ml. Further, the “MBC S. aureus” value in test [4] was 75 (75) μg/ml.
Consider `N=C(N)NCCC[C@H](NC(=O)Cc1c[nH]c2ccccc12)C(=O)N[C@@H](Cc1c[nH]c2ccccc12)C(=O)OCc1ccccc1` [Ind RW OBz, Ind-Arg-Trp-OBzl], for which the “MIC E. coli” value in test [1] (ATCC 25922) is given as >200 (>200) μg/ml. Besides, in test [2] (ATCC 25923), the “MIC S. aureus” value is 20 (20) μg/ml. In addition, the “MBC E. coli” value in test [3] was >200 (>200) μg/ml. Also, the “MBC S. aureus” value in test [4] is on record as 20 (20) μg/ml.
Take `N=C(N)NCCC[C@H](NC(=O)[C@H](CCCNC(=N)N)NC(=O)[C@@H](N)CCCNC(=N)N)C(=O)N[C@@H](Cc1c[nH]c2ccccc12)C(=O)N[C@@H](Cc1c[nH]c2ccccc12)C(=O)N[C@@H](Cc1c[nH]c2ccccc12)C(N)=O` [RRRWWW] (H-RRRWWW-NH2): in test [3], the “MBC E. coli” value is 20 µg/mL (≈ 19.2 µM).
For `N=C(N)NCCC[C@H](NC(=O)[C@H](Cc1c[nH]c2ccccc12)NC(=O)[C@@H](N)CCCNC(=N)N)C(=O)N[C@@H](Cc1c[nH]c2ccccc12)C(=O)OCc1ccccc1` [RWRW-OBzl] (H-RWRW-OBn), the “MIC E. coli” value in test [1] (ATCC 25922) is 100 µg/mL (≈ 126 µM). Also, the “MIC MRSE” value in the test on MRSE ATCC 27626 amounted to 2.5 µg/mL (≈ 3.15 µM).
Turning to `N=C(N)NCCC[C@H](NC(=O)[C@H](Cc1c[nH]c2ccccc12)NC(=O)[C@H](CCCNC(=N)N)NC(=O)[C@H](Cc1c[nH]c2ccccc12)NC(=O)[C@@H](N)CCCNC(=N)N)C(=O)N[C@@H](Cc1c[nH]c2ccccc12)C(N)=O` [RWRWRW] (H-RWRWRW-NH2), the “MBC E. coli” value in test [3] is 20 µg/mL (≈ 19.2 µM). Also, in test [4], the “MBC S. aureus” value was 10 µg/mL (≈ 9.58 µM).
Consider `N=C(N)NCCC[C@H](NC(=O)[C@H](Cc1c[nH]c2ccccc12)NC(=O)[C@H](CCCNC(=N)N)NC(=O)[C@H](Cc1c[nH]c2ccccc12)NC(=O)[C@@H](N)CCCNC(=N)N)C(N)=O` [RWRWR] (H-RWRWR-NH2), for which, in test [2] (ATCC 25923), the “MIC S. aureus” value amounted to 20 µg/mL (≈ 23.3 µM). For the same compound, in test [3], the “MBC E. coli” value is 100 µg/mL (≈ 117 µM). Also, the “MBC S. aureus” value in test [4] worked out at 20 µg/mL (≈ 23.3 µM).
Take `N=C(N)NCCC[C@H](N)C(=O)N[C@@H](Cc1c[nH]c2ccccc12)C(=O)N[C@H](CCCNC(=N)N)C(=O)N[C@H](Cc1c[nH]c2ccccc12)C(=O)OCc1ccccc1` [RWrw-OBzl] (H-RW[dR][dW]-OBn): in test [2] (ATCC 25923), the “MIC S. aureus” value worked out at 5 µg/mL (≈ 6.31 µM). Further, the “MIC MRSE” value in the test with MRSE ATCC 27626 stood at 2.5 µg/mL (≈ 3.15 µM).
Consider `N=C(N)NCCC[C@H](NC(=O)[C@H](Cc1c[nH]c2ccccc12)NC(=O)[C@H](CCCNC(=N)N)NC(=O)[C@@H](N)Cc1c[nH]c2ccccc12)C(=O)N[C@@H](Cc1c[nH]c2ccccc12)C(N)=O` [WRWRW] (H-WRWRW-NH2), for which the “MBC E. coli” value in test [3] was found to be 50 µg/mL (≈ 56.3 µM). Further, the “MBC S. aureus” value in test [4] was 20 (20) μg/ml.
Regarding `C[C@H](NC(=O)[C@H](C)NC(=O)[C@H](Cc1c[nH]c2ccccc12)NC(=O)[C@@H](N)Cc1c[nH]c2ccccc12)C(=O)N[C@@H](CCCNC(=N)N)C(=O)N[C@@H](CCCNC(=N)N)C(N)=O` [WWAARR-NH2] (H-WWAARR-NH2; N-terminus assumed), the “MIC E. coli” value in test [1] (ATCC 25922) was greater than 200 µg/mL; in test [1] (Table 8, second column), 237.0 μM/ml. Also, the “MIC S. aureus” value is greater than 200 µg/mL in test [2] (ATCC 25923) and 237.0 μM/ml in test [2] (Table 8, second column).
Take `N=C(N)NCCC[C@H](NC(=O)[C@H](CCCNC(=N)N)NC(=O)[C@H](CCCNC(=N)N)NC(=O)[C@H](Cc1c[nH]c2ccccc12)NC(=O)[C@@H](N)Cc1c[nH]c2ccccc12)C(=O)N[C@@H](Cc1c[nH]c2ccccc12)C(N)=O` [WWRRRW] (H-WWRRRW-NH2): the “MIC E. coli” value in test [1] (ATCC 25922) is 20 (20) μg/ml. Besides, in test [3], the “MBC E. coli” value came to 20 µg/mL (≈ 19.2 µM).
As to `NCCCC[C@@H](N)C(=O)N[C@@H](Cc1c[nH]c2ccccc12)C(=O)OCc1ccccc1` [kW-OBzl] (H-[dK]-Trp-OBn), in test [1] (ATCC 25922), the “MIC E. coli” value is greater than 300 µg/mL and the “Minimum inhibitory concentration E. coli” value was greater than 300 µg/mL. Besides, in test [2] (ATCC 25923), the “MIC S. aureus” value amounted to 100 µg/mL (≈ 237 µM) and the “Minimum inhibitory concentration S. aureus” value worked out at 100 µg/mL (≈ 237 µM).
For the compound `N=C(N)NCCC[C@@H](N)C(=O)N[C@H](Cc1c[nH]c2ccccc12)C(=O)OCc1ccccc1` [rw-OBzl] (H-[dR]-[dW]-OBn), the “MIC E. coli” value in test [1] (ATCC 25922) is greater than 200 µg/mL. Moreover, the “MIC MRSE” value in the test with MRSE ATCC 27626 amounted to 20 µg/mL (≈ 44.4 µM).
With `N=C(N)NCCC[C@H](NC(=O)[C@H](N)Cc1c[nH]c2ccccc12)C(=O)N[C@@H](Cc1c[nH]c2ccccc12)C(=O)OCc1ccccc1` [wRW-OBzl] (H-[dW]-Arg-Trp-OBn), the “MIC S. aureus” value in test [2] (ATCC 25923) amounted to 20 µg/mL (≈ 31.4 µM). In addition, the “MIC MRSE” value with MRSE ATCC 27626 was found to be 10 µg/mL (≈ 15.7 µM).
In the case of `N=C(N)NCCC[C@@H](NC(=O)[C@H](N)Cc1c[nH]c2ccccc12)C(=O)N[C@H](Cc1c[nH]c2ccccc12)C(=O)OCc1ccccc1` [wrw-OBzl] (H-[dW]-[dR]-[dW]-OBn), the “MIC MRSE” value with MRSE ATCC 27626 was found to be 5 µg/mL (≈ 7.85 µM).
In the case of “AAWWRR-NH2 Pmc+: hexapeptide amide having the Pmc group (also: Pmc group, position not given here)”, the “MIC E. coli” value in test [1] (Table 8, first column) amounted to 20 µg/mL; in test [1] (Table 8, second column) it was 18.0 μM/ml. Also, the “MIC S. aureus” value in test [2] (Table 8, first column) amounted to 2.5 µg/mL; in test [2] (Table 8, second column), 2.3 μM/ml.
Consider “AWRWRA-NH2 Pmc+: hexapeptide amide having the Pmc group (also: Pmc group, position not given here)”, for which the “MIC E. coli” value stood at 20 µg/mL in test [1] (Table 8, first column) and 18.0 μM/ml in test [1] (Table 8, second column). Moreover, the “MIC S. aureus” value in test [2] (Table 8, first column) came to 2.5 µg/mL; in test [2] (Table 8, second column) it was 2.3 μM/ml.
For “RRAAWW-NH2 Pmc+: hexapeptide amide having the Pmc group; label printed twice, second probably RRAAWB (also: Pmc group, position not given here)”, the “MIC E. coli” value in test [1] (Table 8, first column) was 20 µg/mL; in test [1] (Table 8, second column) it was 17.4 μM/ml and 18.0 μM/ml. Further, the “MIC S. aureus” value in test [2] (Table 8, first column) was 2.5 µg/mL; in test [2] (Table 8, second column), 2.2 μM/ml and 2.3 μM/ml.
For “WRAAWR-NH2 Pmc+: hexapeptide amide having the Pmc group (also: Pmc group, position not given here)”, the “MIC E. coli” value in test [1] (Table 8, first column) amounted to 50 µg/mL; in test [1] (Table 8, second column), 45.0 μM/ml. The “MIC S. aureus” value came to 2.5 µg/mL in test [2] (Table 8, first column) and 2.3 μM/ml in test [2] (Table 8, second column).
The matching figures for “WWAARR-NH2 Pmc+: hexapeptide amide having the Pmc group (also: Pmc group, position not given here)”: 50 µg/mL, 45.0 μM/ml, 5 µg/mL and 4.5 μM/ml.
